# Calls of active or inactive are those of the source. No cut-off for these calls is given here. Peptide text beside a SMILES is read from it. * marks the point of attachment. Palmitoyl = CCCCCCCCCCCCCCCC(=O)*; Octanoyl = CCCCCCCC(=O)*
# How the values were obtained:
# Pseudomonas aeruginosa [1] = assay: Antibacterial activity against Pseudomonas aeruginosa DM23155 after 24 hrs by broth microdilution method; assay type: functional; conditions: DM23155, 24 h
# Pseudomonas aeruginosa [2] = assay: Induction of cytoplasmic membrane depolarization in Pseudomonas aeruginosa DM23155 at 4 times MIC after 1 hr by fluorescence assay; assay type: functional, organism-based
# Klebsiella pneumoniae [3] = assay: Antibacterial activity against Klebsiella pneumoniae DM4299 after 24 hrs by broth microdilution method; assay type: functional; conditions: DM4299, 24 h
# Escherichia coli [4] = assay: Antibacterial activity against Escherichia coli ATCC 25922 after 24 hrs by broth microdilution method; assay type: functional; conditions: ATCC 25922, 24 h
# [5] = Toxicity in New Zealand white rabbit erythrocytes assessed as hemolytic activity after 60 mins; assay type: cell-based, Oryctolagus cuniculus; conditions: erythrocyte, 1 h
# [6] = Self-aggregation activity of the compound using 8-(Phenylamino)-1-naphthalenesulfonic acid as fluorescent probe at 300 uM by fluorescence assay; assay type: physicochemical
# Pseudomonas aeruginosa [7] = assay: Antibacterial activity against Pseudomonas aeruginosa DU14476 after 24 hrs by broth microdilution method; assay type: functional
# Pseudomonas aeruginosa [8] = assay: Antibacterial activity against Pseudomonas aeruginosa DR5790 after 24 hrs by broth microdilution method; assay type: functional
# Pseudomonas aeruginosa [9] = assay: Antibacterial activity against Pseudomonas aeruginosa DM4150R after 24 hrs by broth microdilution method; assay type: functional
# Pseudomonas aeruginosa [10] = assay: Antibacterial activity against Pseudomonas aeruginosa DR4877 after 24 hrs by broth microdilution method; assay type: functional
# Pseudomonas aeruginosa [11] = assay: Antibacterial activity against Pseudomonas aeruginosa DM23257 after 24 hrs by broth microdilution method; assay type: functional
# Pseudomonas aeruginosa [12] = assay: Antibacterial activity against Pseudomonas aeruginosa DM23376 after 24 hrs by broth microdilution method; assay type: functional
# Pseudomonas aeruginosa [13] = assay: Antibacterial activity against Pseudomonas aeruginosa ATCC 27853 after 24 hrs by broth microdilution method; assay type: functional
# Pseudomonas aeruginosa [14] = assay: Antibacterial activity against Pseudomonas aeruginosa ATCC 9027 after 24 hrs by broth microdilution method; assay type: functional
# Pseudomonas aeruginosa [15] = assay: Antibacterial activity against Pseudomonas aeruginosa DR18531 after 24 hrs by broth microdilution method; assay type: functional
# Klebsiella pneumoniae [16] = assay: Antibacterial activity against Klebsiella pneumoniae DS16260 after 24 hrs by broth microdilution method; assay type: functional
# Klebsiella pneumoniae [17] = assay: Antibacterial activity against Klebsiella pneumoniae DB55301 after 24 hrs by broth microdilution method; assay type: functional
# Klebsiella pneumoniae [18] = assay: Antibacterial activity against Klebsiella pneumoniae DS07955 after 24 hrs by broth microdilution method; assay type: functional
# Escherichia coli [19] = assay: Antibacterial activity against Escherichia coli DM17528 after 24 hrs by broth microdilution method; assay type: functional
# Escherichia coli [20] = assay: Antibacterial activity against Escherichia coli DS17232 after 24 hrs by broth microdilution method; assay type: functional
# Klebsiella pneumoniae [21] = assay: Antibacterial activity against Klebsiella pneumoniae DU31158 after 24 hrs by broth microdilution method; assay type: functional
compound,measurement,setting,value
CCCCCCCC(=O)N[C@@H](CCCNC(=N)N)C(=O)NCC(=O)N[C@@H](CCCNC(=N)N)C(=O)N[C@@H](CCCCN)C(=O)NCC(=O)NCC(=O)N[C@@H](CCCNC(=N)N)C(=O)N[C@@H](CCCNC(=N)N)C(=O)N[C@@H](CCCCN)C(=O)N[C@@H](CCCCN)C(=O)O (Octanoyl-RGRKGGRRKK-OH),MIC,Pseudomonas aeruginosa [1],10 µM
same,Activity,Pseudomonas aeruginosa [2],Active
same,MIC,Klebsiella pneumoniae [3],40 µM
same,MIC,Escherichia coli [4],6 µM
same,HC10,[5],> 10000 µg/mL
CCCCCCCCCCCCCCCC(=O)N[C@@H](CCCNC(=N)N)C(=O)NCC(=O)N[C@@H](CCCNC(=N)N)C(=O)N[C@@H](CCCCN)C(=O)NCC(=O)NCC(=O)N[C@@H](CCCNC(=N)N)C(=O)N[C@@H](CCCNC(=N)N)C(=O)N[C@@H](CCCCN)C(=O)N[C@@H](CCCCN)C(=O)O (Palmitoyl-RGRKGGRRKK-OH),Activity,[6],Not Active
same,MIC,Pseudomonas aeruginosa [1],80 µM
same,MIC,Klebsiella pneumoniae [3],80 µM
same,MIC,Escherichia coli [4],10 µM
same,HC10,[5],5064 µg/mL
CCCCCCCCCCCCCCCC(=O)N[C@@H](CCCNC(=N)N)C(=O)NCC(=O)N[C@@H](CCCNC(=N)N)C(=O)N[C@@H](CCCCN)C(=O)N[C@H](C(=O)N[C@H](C(=O)N[C@@H](CCCNC(=N)N)C(=O)N[C@@H](CCCNC(=N)N)C(=O)N[C@@H](CCCCN)C(=O)N[C@@H](CCCCN)C(=O)O)C(C)C)C(C)C (Palmitoyl-RGRKVVRRKK-OH),Activity,[6],Not Active
same,MIC,Pseudomonas aeruginosa [1],80 µM
same,MIC,Klebsiella pneumoniae [3],40 µM
same,MIC,Escherichia coli [4],10 µM
same,HC10,[5],5481 µg/mL
COc1c(N2CCNC(C)C2)c(F)cc2c(=O)c(C(=O)O)cn(C3CC3)c12 (stereo not given) [GATIFLOXACIN],MIC,"Pseudomonas aeruginosa [7]; DU14476, 24 h",64 µM
same,MIC,"Pseudomonas aeruginosa [8]; DR5790, 24 h",64 µM
same,MIC,Pseudomonas aeruginosa [9],2 µM
same,MIC,"Pseudomonas aeruginosa [10]; DR4877, 24 h",32 µM
same,MIC,"Pseudomonas aeruginosa [11]; DM23257, 24 h",2 µM
same,MIC,"Pseudomonas aeruginosa [12]; DM23376, 24 h",4 µM
same,MIC,"Pseudomonas aeruginosa [13]; ATCC 27853, 24 h",4 µM
same,MIC,"Pseudomonas aeruginosa [14]; ATCC 9027, 24 h",2 µM
same,MIC,"Pseudomonas aeruginosa [15]; DR18531, 24 h",8 µM
C[C@H]1COc2c(N3CCN(C)CC3)c(F)cc3c(=O)c(C(=O)O)cn1c23 [LEVOFLOXACIN],MIC,"Klebsiella pneumoniae [16]; DS16260, 24 h",10 µM
same,MIC,"Klebsiella pneumoniae [17]; DB55301, 24 h",80 µM
same,MIC,"Klebsiella pneumoniae [18]; DS07955, 24 h",> 100 µM
same,MIC,"Escherichia coli [19]; DM17528, 24 h",80 µM
same,MIC,"Escherichia coli [20]; DS17232, 24 h",20 µM
same,MIC,"Klebsiella pneumoniae [21]; DU31158, 24 h",0.03 µM
GENTAMICIN,MIC,Pseudomonas aeruginosa [7],25 µM
same,MIC,Pseudomonas aeruginosa [8],25 µM
same,MIC,Pseudomonas aeruginosa [9],0.5 µM
same,MIC,Klebsiella pneumoniae [16],2 µM
same,MIC,Pseudomonas aeruginosa [10],> 60 µM
same,MIC,Klebsiella pneumoniae [17],7.5 µM
same,MIC,Klebsiella pneumoniae [18],> 60 µM
same,MIC,Pseudomonas aeruginosa [11],0.5 µM
same,MIC,Escherichia coli [19],< 0.25 µM
same,MIC,Pseudomonas aeruginosa [12],0.5 µM
same,MIC,Escherichia coli [20],1 µM
same,MIC,Pseudomonas aeruginosa [13],0.5 µM
same,MIC,Pseudomonas aeruginosa [14],0.25 µM
same,MIC,Klebsiella pneumoniae [21],< 0.25 µM
same,MIC,Pseudomonas aeruginosa [15],30 µM
